{"source": "patent US20030096020A1", "about": "“Novel herbal composition for the management of bronchial asthma and a process of manufacturing the same” (priority 2001, published 2003)", "test_system": "mast cells", "test": "Active anaphylaxis method to evaluate mast cell count", "assay_type": "in vivo, rat", "details": "sensitized rats"}
{"smiles": "C[C@]12C=CC(=O)C=C1CC[C@@H]1[C@@H]2[C@@H](O)C[C@@]2(C)[C@H]1CC[C@]2(O)C(=O)CO", "note": "[Standard, Prednisolone]", "values": [{"measurement": "Degranulation (% mean +/- SEM) of mast cells, 21st day sacrifice, central zone", "setting": "no treatment day 14 to 21, 21st day sacrifice, central zone", "value": "29.4 ± 7.2", "unit": "%"}, {"measurement": "Degranulation (% mean +/- SEM) of mast cells, 21st day sacrifice, peripheral zone", "setting": "no treatment day 14 to 21, 21st day sacrifice, peripheral zone", "value": "37.51 ± 8.3", "unit": "%"}, {"measurement": "Degranulation (% mean +/- SEM) of mast cells, 13th day sacrifice, central zone", "setting": "oral treatment day 5 to 13, 13th day sacrifice, central zone", "value": "8.4 ± 2.0", "unit": "%"}, {"measurement": "Degranulation (% mean +/- SEM) of mast cells, 13th day sacrifice, peripheral zone", "setting": "oral treatment day 5 to 13, 13th day sacrifice, peripheral zone", "value": "8.7 ± 1.621", "unit": "%"}]}
